Measured values as given in publication PMC6370995, “Phase I study of PF‐04895162, a Kv7 channel opener, reveals unexpected hepatotoxicity in healthy subjects, but not rats or monkeys: clinical evidence of disrupted bile acid homeostasis” (Pharmacology Research & Perspectives, 2019).
Like-named read-outs stand apart in the source and are kept apart here.

How the values were obtained:
[1] = test system: human hepatocytes; test: mitochondrial respiratory reserve in human hepatocytes; type: cell-based; conditions: human hepatocytes treated for 25 minutes (data not shown)
[2] = target: T1, NTCP (Homo sapiens, UniProt Q14973); test: NTCP uptake of tritium labeled TCA in CHO cells; type: cell-based; conditions: at 250 μmol/L
T1 construct: host or cells: CHO cells
T1 sequence (Q14973 1-349): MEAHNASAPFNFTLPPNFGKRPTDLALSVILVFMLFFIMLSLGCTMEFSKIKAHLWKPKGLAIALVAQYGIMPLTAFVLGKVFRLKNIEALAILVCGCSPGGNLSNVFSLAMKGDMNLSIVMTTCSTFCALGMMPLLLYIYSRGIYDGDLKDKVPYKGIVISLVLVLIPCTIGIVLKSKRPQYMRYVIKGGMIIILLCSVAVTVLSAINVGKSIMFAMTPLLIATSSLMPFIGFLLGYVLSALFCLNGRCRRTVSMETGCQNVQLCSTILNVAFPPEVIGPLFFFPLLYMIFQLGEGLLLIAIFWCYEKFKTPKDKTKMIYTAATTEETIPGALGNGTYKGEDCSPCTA
Source text: […]

[3] = test system: Sprague-Dawley rats; test: 28-day Oral Gavage Toxicity and Toxicokinetic Study in Rats; type: in vivo
Description: In the longer-term studies Sprague-Dawley rats were administered PF-04895162 once daily for 28 days or 6 months at doses up to 100 mg/kg/day. […] The drug was well absorbed into the systemic circulation of male and female rats following oral administration for 6 months.

[4] = target: T2, BSEP (Homo sapiens, UniProt O95342); test: BSEP inhibition in vesicles using tritium labeled taurocholic acid; type: biochemical
T2 construct: host or cells: Hi5 insect cell membrane vesicles
T2 sequence (O95342 whole entry): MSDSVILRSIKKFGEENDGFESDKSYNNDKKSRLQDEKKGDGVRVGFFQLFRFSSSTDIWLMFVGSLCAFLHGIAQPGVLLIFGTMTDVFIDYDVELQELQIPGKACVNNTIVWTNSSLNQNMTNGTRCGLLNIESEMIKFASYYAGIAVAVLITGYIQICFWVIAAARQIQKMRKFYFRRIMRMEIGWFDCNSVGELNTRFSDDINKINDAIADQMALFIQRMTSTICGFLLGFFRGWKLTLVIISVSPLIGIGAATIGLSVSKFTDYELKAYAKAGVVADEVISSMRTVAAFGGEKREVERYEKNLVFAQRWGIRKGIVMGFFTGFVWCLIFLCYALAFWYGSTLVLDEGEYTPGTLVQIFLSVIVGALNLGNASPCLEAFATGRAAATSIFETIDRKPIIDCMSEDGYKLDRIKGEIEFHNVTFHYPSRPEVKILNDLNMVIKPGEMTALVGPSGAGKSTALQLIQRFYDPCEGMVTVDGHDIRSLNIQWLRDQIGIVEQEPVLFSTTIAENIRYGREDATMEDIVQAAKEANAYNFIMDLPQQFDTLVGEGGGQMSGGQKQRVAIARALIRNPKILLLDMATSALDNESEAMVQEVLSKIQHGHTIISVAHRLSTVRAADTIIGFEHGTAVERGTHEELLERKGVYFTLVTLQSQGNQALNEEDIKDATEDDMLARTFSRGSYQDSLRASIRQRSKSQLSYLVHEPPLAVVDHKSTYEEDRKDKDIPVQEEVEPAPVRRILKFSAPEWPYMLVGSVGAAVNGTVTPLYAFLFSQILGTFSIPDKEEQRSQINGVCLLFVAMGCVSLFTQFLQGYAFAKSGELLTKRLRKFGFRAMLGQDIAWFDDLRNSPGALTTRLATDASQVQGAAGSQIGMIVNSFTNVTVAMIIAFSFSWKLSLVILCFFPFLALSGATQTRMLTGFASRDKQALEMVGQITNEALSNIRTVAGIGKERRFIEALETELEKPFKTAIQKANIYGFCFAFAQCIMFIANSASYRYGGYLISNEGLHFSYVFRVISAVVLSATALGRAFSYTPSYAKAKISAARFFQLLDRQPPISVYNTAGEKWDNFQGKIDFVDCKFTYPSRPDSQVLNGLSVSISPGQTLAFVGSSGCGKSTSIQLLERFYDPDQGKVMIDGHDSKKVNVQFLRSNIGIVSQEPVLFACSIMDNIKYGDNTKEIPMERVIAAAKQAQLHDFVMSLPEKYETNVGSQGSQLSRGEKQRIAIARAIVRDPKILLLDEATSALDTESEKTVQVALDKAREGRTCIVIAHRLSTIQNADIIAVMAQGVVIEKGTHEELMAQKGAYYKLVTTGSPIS
Source text: […]

[5] = test system: healthy subjects; conditions: cited from earlier work; for subjects with mild/moderate transaminase elevations: ref Pfizer data on file
[6] = ADME of single oral dose of 14C-labeled parent in male rats; type: in vivo, rat; conditions: single oral dose (target 15 mg/kg) 14C-labeled
Source text: A summary of liver effects along with a detailed synopsis of each nonclinical study that was used to support the Investigational New Drug Application filing along with longer term studies can be found in the supplemental information associated with this article. In brief, this compound advanced into clinical studies without any histopathological evidence of liver injury or reproducible transaminase elevations in rats and monkeys. The addition of total bile acid analysis in nonclinical safety assessment studies, although germane to this investigation retrospectively, is not routine.26 Absorption, distribution, metabolism, and excretion of parent and metabolites were examined in albino and pigmented male rats after administration of a single oral dose (target 15 mg/kg) of ^14C‐labeled parent. Elimination of radioactivity occurred mostly within the first 24 hours after dosing with approximately 71 and 22% of the administered dose excreted in feces and urine, respectively. An equivalent human study was not performed.

[7] = HepG2 72 hour cytotoxicity assay based on ATP depletion; type: cell-based; conditions: human, HepG2 cells; HepG2, after 72 hours
Source text: […]

[8] = test system: cynomolgus monkeys; test: 28-day Nasogastric Intubation Toxicity Study in Cynomolgus Monkeys; type: in vivo, cynomolgus monkey
Description: A 28-day nasogastric toxicity study was conducted in cynomolgus monkeys at up to 100 mg/kg/day and a 9-month oral toxicity study with a 3-month interim sacrifice was conducted in cynomolgus monkeys at up to 100 mg/kg/day.

[9] = test system: cynomolgus monkeys; test: 7-Day Oral Toxicity Study in Monkeys; type: in vivo, cynomolgus monkey; conditions: for liver weight: males and females
Description: (§1) Male and female cynomolgus monkeys were administered PF-04895162 twice daily for 7 days at approximately 12 hours apart, with the dose split equally between the 2 daily doses. The highest administered does was 200 mg/kg/day.

[10] = 7-Day Oral Toxicity Study in Monkeys; type: in vivo, cynomolgus monkey; conditions: both sexes, cynomolgus monkey, plasma, oral, Day 7, males and females, read-out: total Cmax
Description: as §1

With `O=C(Cc1ccc(F)cc1)Nn1c(C2CC2)nc2cc(F)ccc2c1=O` [PF‐04895162, N‐(2‐cyclopropyl‐7‐fluoro‐4‐oxoquinazolin‐3(4H)‐yl)‐2‐(4‐fluorophenyl)ethanamide] the “Concentrations at which mitochondrial respiratory reserve was compromised” value [1] was greater than 11 µmol/L, the inhibition at 250 µM [2] was 30% and the “few feces, incidence” value ([3]; 100 mg/kg, females) was 6/15. For the same molecule, the “head tremors, incidence” value ([3]; 100 mg/kg, females) was 2/15, the “rough haircoat, incidence” value ([3]; 100 mg/kg, females) was 4/15 and the “clear oral discharge, incidence” value ([3]; 100 mg/kg, males) was 2/15. The “microscopic findings in the liver” value ([3]; 100 mg/kg/day for 28 days) was “No treatment-related microscopic findings”, the body temperature ([3]; 3, 30, 100 mg/kg, 28 days) was “no apparent treatment-related effect” and the clinical pathology data ([3]; 3, 30, 100 mg/kg, 28 days) was “no apparent treatment-related effects”. The “gross pathology and mean organ weights” value ([3]; 3, 30, 100 mg/kg, 28 days) was “no obvious treatment-related gross pathology findings or mean organ weight changes”, the mortality ([3]; 3, 30, 100 mg/kg, 28 days) was “no mortality” and the liver weights ([3]; 28 days, up to 100 mg/kg/day) was “Increased liver weights”. For the same molecule, the “Day 28 mean body weight” value ([3]; females, 3 mg/kg) was 101 % of control, the “Weeks 1-4 food consumption” value ([3]; females, 3 mg/kg) was 101 % of control and the Mean liver weight ([3]; females, 3 mg/kg (cell cut, unit not shown)) was 111. The “Day 28 mean body weight” value ([3]; females, 30 mg/kg) was 97 % of control, the “Weeks 1-4 food consumption” value ([3]; females, 30 mg/kg) was 97 % of control and the Mean liver weight ([3]; females, 30 mg/kg (cell cut, unit not shown)) was 106. For the same molecule, the “Day 28 mean body weight” value ([3]; females, 100 mg/kg) was 95 % of control, the “Weeks 1-4 food consumption” value ([3]; females, 100 mg/kg) was 88 % of control and the “Day 28 mean body weight” value ([3]; males, 3 mg/kg) was 100 % of the mean control weight. The “Weeks 1-4 food consumption” value ([3]; males, 3 mg/kg) was 99 % of the mean control food consumption, the “Day 28 mean body weight” value ([3]; males, 30 mg/kg) was 92 % of the mean control weight and the “Weeks 1-4 food consumption” value ([3]; males, 30 mg/kg) was 95 % of the mean control food consumption. The “Day 28 mean body weight” value ([3]; males, 100 mg/kg) was 90 % of the mean control weight, the “Weeks 1-4 food consumption” value ([3]; males, 100 mg/kg) was 87 % of the mean control food consumption and the transaminases ([3]; once daily for 28 days, up to 100 mg/kg/day) was “No transaminase elevations”. The IC50 ([4]; Hi5 vesicles, N = 4, geometric mean) was 106 µM, the “ratio of systemic Cmax to BSEP vesicle IC50” value ([4]; initially (single dose)) was 0.12 x and the “subjects with mild/moderate transaminase elevations” value ([5]; 250 mg BID for 7 days) was “one of 12 subjects”. The “subjects with mild/moderate transaminase elevations” value ([5]; 300 mg BID for 7 days) was “one of 12 subjects”, the “liver injury in healthy subjects” value ([5]; multiple doses up to 200 mg BID for 7 days) was “No evidence of liver injury” and the “liver injury in healthy subjects” value ([5]; single dose studies up to 600 mg) was “No evidence of liver injury”. For the same molecule, the “administered dose excreted in feces” value [6] was “approximately 71%”, the “administered dose excreted in urine” value [6] was roughly 22% and the IC50 at 72 h [7] was roughly 130 µM. For the same molecule, the “vomitus, incidence” value ([8]; 30 mg/kg/day, females) was 1/5, the “vomitus, incidence” value ([8]; 30 mg/kg/day, males) was 1/5 and the “parent AUC24 at the end of the study” value ([8]; 100 mg/kg/day, 28 days) was “mild autoinduction of metabolism”. The “ataxia, incidence” value ([8]; 100 mg/kg/day, females) was 2/5, the “body tremors, incidence” value ([8]; 100 mg/kg/day, females) was 3/5 and the “dilated pupils, incidence” value ([8]; 100 mg/kg/day, females) was 4/5. The “hunched posture, incidence” value ([8]; 100 mg/kg/day, females) was 3/5, the “squinting, incidence” value ([8]; 100 mg/kg/day, females) was 1/5 and the “vomitus, incidence” value ([8]; 100 mg/kg/day, females) was 2/5. The “ataxia, incidence” value ([8]; 100 mg/kg/day, males) was 2/5, the “body tremors, incidence” value ([8]; 100 mg/kg/day, males) was 4/5 and the “dilated pupils, incidence” value ([8]; 100 mg/kg/day, males) was 4/5. The “hunched posture, incidence” value ([8]; 100 mg/kg/day, males) was 3/5, the “hypoactivity, incidence” value ([8]; 100 mg/kg/day, males) was 2/5 and the “vomitus, incidence” value ([8]; 100 mg/kg/day, males) was 1/5. The survival ([8]; 3, 10, 30, 100 mg/kg/day, 28 days) was “All animals survived to their scheduled termination”, the “mean body (rectal) temperatures” value ([8]; 30 and 100 mg/kg/day, 1, 2, and/or 4 hours post-dose, first day of treatment) was “larger decreases in mean body (rectal) temperatures” and the “hematology, coagulation, clinical chemistry, macroscopic and microscopic pathology” value ([8]; 28 days, up to 100 mg/kg/day) was “No effect of treatment”. For the same molecule, the Treatment-related clinical findings ([9]; 150 and/or 200 mg/kg/day) was “decreased activity, ataxia, inappetence, stereotypy (hyper-reactivity, rigidity, jumping), tremors, loss of limb function, rapid eye movement, and eyelid partially/completely closed”, the thymus gland weight ([9]; females, 150 and 200 mg/kg/day) was “Decreased thymus gland weight” and the liver weight ([9]; 150 and 200 mg/kg/day) was “Increased liver weight”. For the same molecule, the liver weight ([9]; 150 and 200 mg/kg/day, listed as ICA-105665) was “increased liver weight”, the brain weight ([9]; males, 150 and 200 mg/kg/day) was “dose-dependent increases in brain weight” and the “clinical chemistry (liver effects)” value ([9]; twice daily for 7 days, up to 200 mg/kg/day) was “no clinical chemistry changes suggestive of liver effects”. For the same molecule, the Cmax ([10]; 150 mg/kg/day) was greater than 27000 ng/mL and the Cmax ([10]; 200 mg/kg/day) was greater than 24000 ng/mL.
